Measured values reported in patent US9873667B2, “Arylsulfanyl compounds and compositions for delivering active agents” (EMISPHERE TECHNOLOGIES INC., priority 2006, dated 2018).

What was measured:
Blood glucose levels = assay: Oral delivery of insulin with delivery agent compound; blood glucose by glucometer; assay type: in vivo, male Sprague-Dawley rats
Procedure: Insulin stock solution (15 mg/ml) (Human zinc insulin, Calbiochem-Novabiochem Corp., La Jolla, Calif.) was prepared with deionized water. Oral dosing compositions containing 200 mg/kg of delivery agent compound and 0.5 mg/kg of insulin in aqueous solution were prepared with the delivery agent compound shown in Table 1 below. Either the sodium salt of the delivery agent compound was used or the free acid was converted to the sodium salt with one equivalent of sodium hydroxide.
The dosing solution was administered to fasted male Sprague-Dawley rats by oral gavage with an average weight of about 225-250 grams. Blood glucose levels were then determined by glucometer (One Touch Ultra®, LifeScan, Inc.) and compared to vehicle control (1 ml/kg of water). Samples were collected prior to dosing (time 0) and at 15, 30, 45 and 60 minutes after dosing. The % glucose reduction values in Table 1 are values found at the C minimum, and are an average % reduction with respect to the number of times the experiment was run for each delivery agent.
0.5 mg/kg of Insulin and 25-100 mg/kg of delivery agent compound (particular amount shown in Table 2 below) was administered to male Sprague-Dawley rats with an average weight of about 225-250 grams. The purpose of this test was to ascertain the dose response of the delivery agent compound. Glucose reduction was determined as set forth in connection with the data in Table 1.
Insulin Titrations were performed with Delivery Agent 29 in order to gauge the effect of varying dosages of insulin.

[1] = Oral delivery of LHRH with delivery agent; plasma LHRH concentration; assay type: in vivo, male Sprague-Dawley rats; details: Delivery Agent: 200 mg/kg, LHRH: 1 mg/kg
Procedure: Oral gavage dosing solutions of delivery agent compound and LHRH in phosphate buffer were prepared by mixing. A solution of the delivery agent compound was made either with the sodium salt of the delivery agent compound or by converting the free acid to its sodium salt. A solution of the delivery agent compound was prepared in phosphate buffer and stirred, adding one equivalent of sodium hydroxide (1.0 N) when making the sodium salt. The final dosing solutions were prepared by mixing the delivery agent compound solution with a LHRH stock solution (2.75 ml with a concentration of 20 mg/ml in aqueous solution). The pH was adjusted, if necessary, to between about 7 and 8.8.
(§1) Male Sprague-Dawley rats weighing between about 250-300 g were fasted for 24 hours. A dosing group of five animals was administered one of the dosing solutions. An 11 cm Rusch 8 French catheter was adapted to a 1 ml syringe with a pipette tip. The syringe was filled with the dosing solution by drawing the solution through the catheter, which was then wiped dry. The catheter was placed down the esophagus leaving 1 cm of tubing past the incisors. The dosing solution was administered by pressing the syringe plunger.
Blood samples were collected through retroorbital bleeding of approximately 0.4 ml of blood volume using EDTA tubes at time=0 (pre-dose), 2, 10, 15 and 30 minutes. The five samples from each time period were pooled. Previous studies indicated baseline values of about zero. The maximum absorption at the Tmax is reported below in Table 7. As controls, 4-(3-methyl phenoxy) butyric acid (D.A. “B”), the mesylate salt of (4-(8-(2-hydroxyphenoxy)octyl) morpholine (D.A. “C”), 4-(4-(2-hydroxyphenoxy)butyl) morpholine (D.A. “D”), and 4-(6-(2-hydroxyphenoxy)hexyl) morpholine (D.A. “E”) were also administered according to the same protocol and their results are also shown in FIG. 6.

[2] = system: activated partial thromboplastin time (APTT); assay: Intracolonic delivery of heparin with delivery agent; clotting time (APTT); assay type: in vivo, male Sprague-Dawley rats; details: Delivery Agent 50 mg/kg, USP Heparin 25 mg/kg; for Tmax: time of peak APTT
Procedure: Oral gavage and/or intracolonic (IC) dosing solutions containing delivery agent compound and heparin sodium USP were prepared in 25% aqueous propylene glycol. Either the sodium salt of the delivery agent compound was used or the free acid was converted to the sodium salt with one equivalent of sodium hydroxide. The delivery agent compound and heparin (about 166-182 IU/mg) were mixed by vortex as dry powders. This dry mixture was dissolved in 25% v/v aqueous propylene glycol, vortexed, and placed in a sonicator (about 37° C.). The pH was adjusted to about 7 (6.5-8.5) with aqueous NaOH (2N). The dosing solution was sonicated to produce a clear solution. The final volume was adjusted to about 3.0 ml.
as §1, with “about 275-350” for “about 250-300”, “24 hours and anesthetized with ketamine hydrochloride (88 mg/kg) intramuscularly immediately prior to dosing and again as needed to maintain anesthesia.” for “24 hours.”, “animals were” for “animals was”, “solutions. For oral gavage dosing, an” for “solutions. An”, “with” for “with the”
For intracolonic (IC) dosing, a 7.5 cm, 8 French Rusch catheter was adapted to a 1 ml syringe with a pipette tip. The dosing catheter was inserted into the colon through the anus until the tube was no longer visible. The dosing solution was expressed slowly into the colon by pressing the syringe plunger.
Citrated blood samples were collected by cardiac puncture following the administration of ketamine (88 mg/kg), typically at 0.25, 0.5, 1.0 and 1.5 hours after dosing. Heparin absorption was verified by an increase in clotting time measured by the activated partial thromboplastin time (APTT) according to the method of Henry, J. B., Clinical Diagnosis and Management by Laboratory Methods, Philadelphia, Pa., W.B. Saunders (1979), which is hereby incorporated by reference. Previous studies indicated baseline values of about 20 seconds. Results from the animals in each group were averaged for each time points and the highest of these averages (i.e. mean peak APTT) is reported.

[3] = oral gavage, 200 mg/kg Delivery Agent Compound, 0.5 mg/kg Insulin, value at C minimum vs vehicle control
[4] = dose response, Delivery Agent Compound 50 mg/kg, Insulin 0.5 mg/kg

| melting point | SMILES | % Glucose Reduction (Blood glucose levels; [3]) | also measured |
| --- | --- | --- | --- |
| – | COc1cccc(SCCCCCCCC(=O)O)c1 [Compound 22] | −3.7 ± 9.4% | – |
| 92 to 93 °C | O=C(O)CCCCCCCSc1ccc(Cl)cc1 [Compound 33, 8-(4-Chloro-phenylsulfanyl)-octanoic acid] | – | – |
| 65 to 66 °C | COc1ccccc1SCCCCCCCCCC(=O)O [Compound 4, 10-(2-Methoxy-phenylsulfanyl)-decanoic acid] | – | Tmax [1]: 5 min |
| – | O=C(O)CSc1cccc(O)c1 [Compound 46, (3-Hydroxy-phenylsulfanyl)-acetic acid] | 0.3 ± 27.7% | – |
| – | COc1ccccc1SCCCCCCC(=O)O [Compound 16, 7-(2-Methoxy-phenylsulfanyl)-heptanoic acid] | −38.9 ± 32.7% | – |
| – | COc1cccc(SCCCCCC(=O)O)c1 [Compound 21, 6-(3-Methoxy-phenylsulfanyl)-hexanoic acid] | −19.4 ± 6.6% | – |
| 94 to 95 °C | O=C(O)CCCCCCCSc1ccc(O)cc1 [Compound 11, 8-(4-Hydroxy-phenylsulfanyl)-octanoic acid] | – | APTT (mean peak) [2]: 300.0 s; Tmax [2]: 30.0 min |
| 100 to 102 °C | Cc1ccc(C)c(SCCC(=O)O)c1 [Compound 9, 3-(2,5-Dimethyl-phenylsulfanyl)-propionic acid] | – | – |
| 58 to 59 °C | O=C(O)CCCCCCCCCSc1ccccc1O [Compound 8, 10-(2-Hydroxy-phenylsulfanyl)-decanoic acid] | – | % Glucose Reduction (Blood glucose levels; dose response, Delivery Agent Compound 25 mg/kg, Insulin 0.5 mg/kg): −9.7%; % Glucose Reduction (Blood glucose levels; [4]): −30.5% |
| 77 to 78 °C | O=C(O)CCCSc1ccccc1O [Compound 12, 4-(2-Hydroxy-phenylsulfanyl)-butyric acid] | – | – |
| – | O=C(O)CCCSc1cccc(Cl)c1 [Compound 29, 4-(3-Chloro-phenylsulfanyl)-butyric acid] | – | % Glucose Reduction (Blood glucose levels; insulin titration, Delivery Agent 200 mg/kg, Dose of Insulin 0.00 mg/kg): −6.8%; % Glucose Reduction (Blood glucose levels; insulin titration, Delivery Agent 200 mg/kg, Dose of Insulin 0.25 mg/kg): −31.4%; % Glucose Reduction (Blood glucose levels; insulin titration, Delivery Agent 200 mg/kg, Dose of Insulin 0.50 mg/kg): −30.8% |
| – | O=C(O)CSc1ccc(Cl)c(Cl)c1 [Compound 42, (3,4-dichloro-phenylsulfanyl)-acetic acid] | −22.1 ± 5.4% | – |
| 81 to 82 °C | COc1ccccc1SCCCCCC(=O)O [Compound 3, 6-(2-Methoxy-phenylsulfanyl)-hexanoic acid] | – | Tmax [1]: 5 min |
| – | O=C(O)CCSc1ccccc1Cl [Compound 44, 3-(2-Chloro-phenylsulfanyl)-propionic acid] | −7.8 ± 16.5% | – |
| – | COc1cccc(SCCCC(=O)O)c1 [Compound 27, 4-(3-Methoxy-phenylsulfanyl)-butyric acid] | −47.6 ± 17.4% | – |
| – | O=C(O)CSc1cc(Cl)ccc1Cl [Compound 40, (2,5-dichloro-phenylsulfanyl)-acetic acid] | −6.0 ± 17.5% | – |
| – | O=C(O)CSc1ccc(F)cc1 [Compound 55, (4-Fluoro-phenylsulfanyl)-acetic acid] | −20.9 ± 17.5% | – |
| – | O=C(O)CCCCSc1cccc(Cl)c1 [Compound 24, 5-(3-Chloro-phenylsulfanyl)-pentanoic acid] | −10.0 ± 17.7% | – |

| melting point | SMILES | % Glucose Reduction (Blood glucose levels; [3]) | also measured |
| --- | --- | --- | --- |
| – | O=C(O)CCCCCSc1cccc(Cl)c1 [Compound 32, 6-(3-Chloro-phenylsulfanyl)-hexanoic acid] | −15.2 ± 28.9% | – |
| – | O=C(O)CCCSc1ccc(F)cc1 [Compound 56] | −4.5 ± 11.1% | – |
| – | O=C(O)CCCCCSc1ccc(F)cc1 [Compound 57, 6-(4-Fluoro-phenylsulfanyl)-hexanoic acid] | −11.0 ± 15.7% | – |
| 66 to 68 °C | COc1ccc(SCCCCCCCC(=O)O)cc1 [Compound 10, 8-(4-Methoxy-phenylsulfanyl)-octanoic acid] | – | – |
| 100 to 101 °C | O=C(O)CCCSc1ccc(Cl)cc1 [Compound 34, 4-(4-Chloro-phenylsulfanyl)-butyric acid] | – | – |
| 49 to 50 °C | O=C(O)CCCCCCCSc1ccccc1O [Compound 5, 8-(2-Hydroxy-phenylsulfanyl)-octanoic acid] | – | Tmax [1]: 5 min; % Glucose Reduction (Blood glucose levels; [4]): −13.5%; % Glucose Reduction (Blood glucose levels; dose response, Delivery Agent Compound 100 mg/kg, Insulin 0.5 mg/kg): −18.2% |
| – | O=C(O)CCSc1cccc(Cl)c1 [Compound 45, 3-(3-Chloro-phenylsulfanyl)-propionic acid] | −6.5 ± 21.2% | – |
| 92 to 94 °C | O=C(O)CCCCCSc1ccc(O)cc1 [Compound 35, 6-(4-Hydroxy-phenylsulfanyl)-hexanoic acid] | – | APTT (mean peak) [2]: 100.0 s; Tmax [2]: 30.0 min |
| – | COc1cccc(SCCCCCCCCCC(=O)O)c1 [Compound 20, 10-(3-Methoxy-phenylsulfanyl)-decanoic acid] | −33.9 ± 41.8% | – |
| 73 to 74 °C | Cc1ccc(C)c(SCC(=O)O)c1 [Compound 58, (2,5-Dimethyl-phenylsulfanyl)-acetic acid] | −18.2% | – |
| – | O=C(O)CCCCSc1ccccc1Cl [Compound 25, 5-(2-Chloro-phenylsulfanyl)-pentanoic acid] | −16.0 ± 13.4% | – |
| – | O=C(O)CCCSc1ccccc1F [Compound 54, 4-(2-Fluoro-phenylsulfanyl)-butyric acid] | −37.4 ± 26.0% | – |
| – | COc1ccc(SCC(=O)O)cc1 [Compound 13, (4-Methoxy-phenylsulfanyl)-acetic acid] | −18.2 ± 17.4% | – |
| – | O=C(O)CSc1cccc(F)c1 [Compound 51, (3-Fluoro-phenylsulfanyl)-acetic acid] | −24.9 ± 6.2% | – |
| – | COc1ccccc1SCCCCC(=O)O [Compound 19, 5-(2-Methoxy-phenylsulfanyl)-pentanoic acid] | −33.6 ± 32.4% | – |
| – | O=C(O)CCCSc1cc(Cl)ccc1Cl [Compound 50, 4-(2,5-dichloro-phenylsulfanyl)-butyric acid] | −15.8 ± 10.6% | – |
| – | O=C(O)CCCSc1ccc(Cl)c(Cl)c1 [Compound 53, 4-(3,4-dichloro-phenylsulfanyl)-butyric acid] | −14.8 ± 7.0% | – |
